In patent US20050064050A1 (priority 1999, published 2005):

Tests used:
[1] = molecular target: botulinum neurotoxin (BoNT/A) (Clostridium botulinum, UniProt P0DPI0); parameters: key to BoNT neutralization effects of tea-leaf extract ingredients: Effect: +: Effective in neutralization; −: Ineffective in neutralization
mouse = conditions: in vivo, po

Sequence of botulinum neurotoxin (BoNT/A) (P0DPI0 whole entry, looked up): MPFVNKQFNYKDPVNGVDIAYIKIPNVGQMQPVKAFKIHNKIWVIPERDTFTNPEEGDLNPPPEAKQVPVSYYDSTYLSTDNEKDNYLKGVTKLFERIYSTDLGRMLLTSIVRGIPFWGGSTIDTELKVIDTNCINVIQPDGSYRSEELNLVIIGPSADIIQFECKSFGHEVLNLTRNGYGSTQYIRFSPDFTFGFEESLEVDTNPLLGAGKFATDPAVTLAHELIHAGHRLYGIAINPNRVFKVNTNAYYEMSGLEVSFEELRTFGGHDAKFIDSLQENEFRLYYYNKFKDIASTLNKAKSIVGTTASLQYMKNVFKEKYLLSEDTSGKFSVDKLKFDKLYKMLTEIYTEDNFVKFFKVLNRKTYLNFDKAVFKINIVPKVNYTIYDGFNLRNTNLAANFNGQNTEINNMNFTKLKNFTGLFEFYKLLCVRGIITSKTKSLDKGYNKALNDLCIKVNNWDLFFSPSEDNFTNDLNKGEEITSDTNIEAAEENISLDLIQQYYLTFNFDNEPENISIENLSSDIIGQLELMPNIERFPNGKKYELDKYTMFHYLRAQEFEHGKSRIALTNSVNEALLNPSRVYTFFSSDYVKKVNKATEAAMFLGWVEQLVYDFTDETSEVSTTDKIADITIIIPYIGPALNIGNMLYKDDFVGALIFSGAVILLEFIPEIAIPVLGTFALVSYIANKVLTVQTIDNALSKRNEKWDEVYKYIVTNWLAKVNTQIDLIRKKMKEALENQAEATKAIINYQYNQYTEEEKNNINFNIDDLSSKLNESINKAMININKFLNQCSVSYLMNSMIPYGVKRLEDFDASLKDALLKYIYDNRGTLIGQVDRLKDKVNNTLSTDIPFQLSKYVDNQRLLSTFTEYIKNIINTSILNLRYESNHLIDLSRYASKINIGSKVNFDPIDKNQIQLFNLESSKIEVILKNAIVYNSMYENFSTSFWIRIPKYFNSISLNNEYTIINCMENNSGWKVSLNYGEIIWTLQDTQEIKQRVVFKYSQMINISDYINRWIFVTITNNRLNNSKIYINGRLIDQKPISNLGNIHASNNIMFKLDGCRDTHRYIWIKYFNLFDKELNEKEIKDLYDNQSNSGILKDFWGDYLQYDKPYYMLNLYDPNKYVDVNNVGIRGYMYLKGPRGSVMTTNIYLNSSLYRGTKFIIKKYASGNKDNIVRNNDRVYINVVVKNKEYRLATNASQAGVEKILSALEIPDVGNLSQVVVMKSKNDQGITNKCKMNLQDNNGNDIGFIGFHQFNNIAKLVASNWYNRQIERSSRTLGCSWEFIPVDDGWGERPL

Compound | BoNT neutralization effects of tea-leaf extract ingredients: Effect [1] | BoNT neutralizing effect (in words) [1] | toxicity (in words) (mouse)
O=C(OC[C@H]1O[C@@H](OC(=O)c2cc(O)c(O)c(OC(=O)c3cc(O)c(O)c(O)c3)c2)[C@H](OC(=O)c2cc(O)c(O)c(OC(=O)c3cc(O)c(O)c(O)c3)c2)[C@@H](OC(=O)c2cc(O)c(O)c(OC(=O)c3cc(O)c(O)c(O)c3)c2)[C@@H]1OC(=O)c1cc(O)c(O)c(OC(=O)c2cc(O)c(O)c(O)c2)c1)c1cc(O)c(O)c(OC(=O)c2cc(O)c(O)c(O)c2)c1 [Tannic Acid, tannic acid] | − | showed no neutralizing effect | 
O=c1c(O)cc([C@H]2Oc3cc(O)cc(O)c3C[C@H]2O)cc2c([C@H]3Oc4cc(O)cc(O)c4C[C@H]3O)cc(O)c(O)c12 [Theaflavin, theaflavin] | − | showed no neutralizing effect | 
catechin | − | showed no neutralizing effect | 
thearubigin |  |  | no toxicity
